Source: patent US20050164370A1 (priority 2003, published 2005)

What was measured:
cytokinin receptor AHK2Δ = biological target: T1, cytokinin receptor AHK2Δ (Arabidopsis thaliana, UniProt Q9C5U2); conditions: TM182-AHK2Δ, DOLU+Glu agar, 1 nM to 100 μM tested, 30° C. for 30 hours
T1 sequence (Q9C5U2 196-1176): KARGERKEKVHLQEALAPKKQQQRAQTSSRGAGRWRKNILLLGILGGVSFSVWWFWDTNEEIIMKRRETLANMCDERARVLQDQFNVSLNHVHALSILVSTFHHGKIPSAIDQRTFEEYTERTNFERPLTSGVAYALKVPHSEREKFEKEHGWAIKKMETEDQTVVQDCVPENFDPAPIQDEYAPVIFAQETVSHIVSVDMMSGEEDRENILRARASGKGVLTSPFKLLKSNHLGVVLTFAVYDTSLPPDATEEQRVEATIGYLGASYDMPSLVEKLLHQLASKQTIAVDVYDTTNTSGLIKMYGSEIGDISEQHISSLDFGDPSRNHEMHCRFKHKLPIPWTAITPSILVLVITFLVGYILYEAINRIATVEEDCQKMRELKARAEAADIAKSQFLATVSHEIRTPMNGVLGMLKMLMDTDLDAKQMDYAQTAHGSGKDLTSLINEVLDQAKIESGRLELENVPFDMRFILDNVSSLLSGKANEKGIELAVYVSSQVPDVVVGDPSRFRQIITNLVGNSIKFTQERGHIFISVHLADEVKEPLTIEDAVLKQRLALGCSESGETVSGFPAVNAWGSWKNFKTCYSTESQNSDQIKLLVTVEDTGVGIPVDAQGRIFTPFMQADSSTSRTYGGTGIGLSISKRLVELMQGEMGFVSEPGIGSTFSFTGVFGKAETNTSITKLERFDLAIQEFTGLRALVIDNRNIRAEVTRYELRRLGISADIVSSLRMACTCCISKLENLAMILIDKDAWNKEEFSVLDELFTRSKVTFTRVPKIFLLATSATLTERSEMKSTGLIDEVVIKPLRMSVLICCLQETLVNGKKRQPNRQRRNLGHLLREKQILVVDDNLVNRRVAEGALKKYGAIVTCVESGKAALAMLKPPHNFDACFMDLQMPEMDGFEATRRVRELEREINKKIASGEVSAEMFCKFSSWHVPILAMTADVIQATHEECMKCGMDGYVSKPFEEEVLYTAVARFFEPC
Protocol: (§1) A culture solution 10 μl (about 800 clones of yeast) of the transformed cells TM182-CRE1, TM182-AHK2, TM182-AHK2Δ and TM182-AHK3 produced by the example 12 was spotted on DOLU+Glu agar media containing 10 μM of trans-zeatin and cultured at 30° C. for 30 hours. After incubation, the growth state of the transformed cells was observed and photographed by a digital camera.
(§2) Culture solutions of the transformed cells TM182-CRE1, TM182-AHK2Δ and TM182-AHK2 produced by the reference example 1 were spotted on DOLU+Glu agar media containing cytokinin in a variety of concentrations (1 nM, 10 nM, 100 nM, 1 μM, 10 μM, 100 μM) and cultured at 30° C. for 30 hours. After incubation, the growth state of the transformed cells was observed and photographed by a digital camera.

cytokinin receptor CRE1 = cytokinin receptor CRE1 (Arabidopsis thaliana, UniProt Q9C5U0, S567G/T1018A); conditions: TM182-CRE1, DOLU+Glu agar, 1 nM to 100 μM tested, 30° C. for 30 hours
Protocol: as §1, §2

cytokinin receptor AHK2 = biological target: T2, cytokinin receptor AHK2 (Arabidopsis thaliana, UniProt Q9C5U2); conditions: TM182-AHK2, DOLU+Glu agar, 1 nM to 100 μM tested, 30° C. for 30 hours
T2 sequence (Q9C5U2 1-1176): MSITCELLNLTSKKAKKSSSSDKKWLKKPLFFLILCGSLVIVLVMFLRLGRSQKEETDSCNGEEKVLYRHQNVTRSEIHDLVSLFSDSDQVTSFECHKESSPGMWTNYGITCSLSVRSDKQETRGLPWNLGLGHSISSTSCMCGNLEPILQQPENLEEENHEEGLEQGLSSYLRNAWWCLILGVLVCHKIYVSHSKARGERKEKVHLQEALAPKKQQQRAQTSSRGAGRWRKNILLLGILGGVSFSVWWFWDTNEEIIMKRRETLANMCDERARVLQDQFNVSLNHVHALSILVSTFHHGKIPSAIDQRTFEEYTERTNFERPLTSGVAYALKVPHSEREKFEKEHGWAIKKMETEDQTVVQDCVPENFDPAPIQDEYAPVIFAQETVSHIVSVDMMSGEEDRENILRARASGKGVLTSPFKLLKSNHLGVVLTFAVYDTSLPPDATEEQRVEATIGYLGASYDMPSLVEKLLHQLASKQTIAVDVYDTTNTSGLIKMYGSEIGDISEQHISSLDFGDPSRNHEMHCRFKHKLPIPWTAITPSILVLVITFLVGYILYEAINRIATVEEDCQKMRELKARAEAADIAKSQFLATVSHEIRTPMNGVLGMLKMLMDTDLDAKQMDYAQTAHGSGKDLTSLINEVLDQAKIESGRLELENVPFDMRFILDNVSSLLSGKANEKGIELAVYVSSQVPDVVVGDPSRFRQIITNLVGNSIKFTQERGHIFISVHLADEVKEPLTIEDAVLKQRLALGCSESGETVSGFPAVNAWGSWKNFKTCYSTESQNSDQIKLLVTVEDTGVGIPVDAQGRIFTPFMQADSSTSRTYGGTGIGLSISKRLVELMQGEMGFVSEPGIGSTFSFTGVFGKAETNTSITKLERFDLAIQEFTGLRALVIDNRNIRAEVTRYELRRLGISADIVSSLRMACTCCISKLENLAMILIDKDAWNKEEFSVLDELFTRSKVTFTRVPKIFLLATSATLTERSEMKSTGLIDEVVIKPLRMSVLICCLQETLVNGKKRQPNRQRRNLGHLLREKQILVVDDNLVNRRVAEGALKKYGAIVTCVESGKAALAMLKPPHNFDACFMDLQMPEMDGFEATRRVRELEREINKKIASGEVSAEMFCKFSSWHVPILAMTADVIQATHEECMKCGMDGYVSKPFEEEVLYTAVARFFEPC
Protocol: as §1, §2

cytokinin receptor CRE1, sequence (Q9C5U0 24-1080 S567G/T1018A): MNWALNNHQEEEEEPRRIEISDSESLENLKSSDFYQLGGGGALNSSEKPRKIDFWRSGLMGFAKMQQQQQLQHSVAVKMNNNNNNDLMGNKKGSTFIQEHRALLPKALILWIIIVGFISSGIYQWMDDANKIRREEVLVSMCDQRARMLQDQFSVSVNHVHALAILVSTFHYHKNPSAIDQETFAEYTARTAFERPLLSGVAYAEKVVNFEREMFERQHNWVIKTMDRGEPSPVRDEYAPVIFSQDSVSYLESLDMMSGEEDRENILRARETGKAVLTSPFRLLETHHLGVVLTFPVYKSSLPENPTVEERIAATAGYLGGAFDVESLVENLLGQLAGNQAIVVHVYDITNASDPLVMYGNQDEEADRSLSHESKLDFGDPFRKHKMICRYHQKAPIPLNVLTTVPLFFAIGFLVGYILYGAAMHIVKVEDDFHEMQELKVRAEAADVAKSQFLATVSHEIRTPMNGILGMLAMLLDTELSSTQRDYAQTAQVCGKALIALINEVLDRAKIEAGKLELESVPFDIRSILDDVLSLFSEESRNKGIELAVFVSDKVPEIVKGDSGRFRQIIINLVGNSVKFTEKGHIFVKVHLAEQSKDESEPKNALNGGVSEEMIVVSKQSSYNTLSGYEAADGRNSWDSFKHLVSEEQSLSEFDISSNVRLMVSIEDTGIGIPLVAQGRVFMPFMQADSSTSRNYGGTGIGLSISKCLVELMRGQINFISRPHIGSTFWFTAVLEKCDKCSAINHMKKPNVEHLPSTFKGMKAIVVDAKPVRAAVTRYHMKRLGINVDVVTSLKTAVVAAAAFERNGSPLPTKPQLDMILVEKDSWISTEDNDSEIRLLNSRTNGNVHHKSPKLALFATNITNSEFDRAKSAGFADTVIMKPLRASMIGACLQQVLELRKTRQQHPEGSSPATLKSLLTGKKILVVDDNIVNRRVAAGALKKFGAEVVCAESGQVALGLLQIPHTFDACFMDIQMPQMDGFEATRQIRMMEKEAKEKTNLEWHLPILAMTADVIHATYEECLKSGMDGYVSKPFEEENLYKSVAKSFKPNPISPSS

- lowest observed supply concentration in which the transformed cells could be grown (cytokinin receptor AHK2Δ): 1 µM
- lowest observed supply concentration in which the transformed cells could be grown (cytokinin receptor CRE1): no growth
- lowest observed supply concentration in which the transformed cells could be grown (cytokinin receptor AHK2): 10 µM
SMILES: C/C(=C/CNc1ncnc2nc[nH]c12)CO [cis-zeatin]
